{"source": "patent US7598344B2", "about": "“Composition, method and use of bi-functional biomaterials” (Board of Regents, The University of Texas System, priority 2002, dated 2009)", "key": {"[1]": {"test": "Biotinylated T59 peptide binding, streptavidin-FITC labeling, on PPyCl", "details": "15 μM peptide, 0.5×0.5 cm^2 substrate", "method": "(§1) (b) 15 μM peptide bound to 0.5×0.5 cm^2 PPyCl substrate. (c) 15 μM peptide bound to 0.5×0.5 cm^2 PPyPSS substrate. (d) 15 μM peptide bound to 0.5×0.5 cm^2 polystyrene (PS) substrate. All samples were incubated with equal concentrations of streptavidin-FITC. Bar, 10 μm.\n(§2) Additional working example data were obtained for the polypyrrole system. A peptide was synthesized whose sequence was determined from the T59 phage (ie., SEQ ID NO. 1)."}, "[2]": {"details": "serum-containing media, pH 7.4, 15% serum; 3 hr, 7 days, 3 weeks", "method": "Binding was studied using biotinylated T59 peptide and streptavidin-FITC labeling. (a) control substrate in which no T59 peptide was added, 0.5×0.5 cm2 PPyCl substrates (b) and (c) were incubated with 15 μM peptide, the samples were then placed in serum-containing media (pH 7.4 and 15% serum) for 3 hr (b), 7 days (c), and 3 weeks (d). Bar, 10 μm.\nIn addition, T59 peptide binding stability in serum-containing medium was also evaluated in working examples using immunofluorescence (note that all previous experiments were done in saline buffer)."}, "[3]": {"test": "Biotinylated T59 peptide binding, streptavidin-FITC labeling, on polystyrene", "details": "15 μM peptide, 0.5×0.5 cm^2 substrate", "method": "as §1, §2"}}, "note": "Ends that are not written are not given here."}
{"sequence": "THRTSTLDYFVI (also: biotinylated, position not given here) [T59 peptide]", "values": [{"measurement": "peptide binding to PPyCl", "setting": "[1]", "value": "binds to PPyCl"}, {"measurement": "binding stability of PPyCl-bound peptide", "setting": "[2]", "value": "a significant fraction of T59 peptides remained bound to PPyCl even after 3 weeks"}, {"measurement": "peptide binding to polystyrene (PS)", "setting": "[3]", "value": "not to PPyPSS or to polystyrene (PS)"}]}
